# Data reported in patent US8202856B2 (Merck Serono SA, priority 2007, dated 2012).
# Structures can show the parent of a compound that is named as a salt.
# Key:
# S1P1 receptor = S1P1 receptor (Homo sapiens, UniProt P21453); test: 35S-GTPγS binding, membranes from CHO cells expressing S1P1; type: biochemical; conditions: CHO cell membranes expressing S1P1
# Outline: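 Membranes (1–10 μg) from CHO cells expressing the receptor were incubated with compound in 20 mM HEPES pH 7.4, 10 mM MgCl2, 140 mM NaCl, 1.7 μM GDP, saponin and 0.2% BSA. [35S]GTPγS (added at 1.5 nM) was then bound for 60 min at 30 °C. Membrane-bound radioactivity, averaged over triplicates, is expressed relative to S1P activation (n=2).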
# S1P3 receptor = S1P3 receptor (Homo sapiens, UniProt Q99500); test: 35S-GTPγS binding, membranes from CHO cells expressing S1P3; type: biochemical; conditions: CHO cell membranes expressing S1P3
# S1P3 receptor, sequence (Q99500 whole entry): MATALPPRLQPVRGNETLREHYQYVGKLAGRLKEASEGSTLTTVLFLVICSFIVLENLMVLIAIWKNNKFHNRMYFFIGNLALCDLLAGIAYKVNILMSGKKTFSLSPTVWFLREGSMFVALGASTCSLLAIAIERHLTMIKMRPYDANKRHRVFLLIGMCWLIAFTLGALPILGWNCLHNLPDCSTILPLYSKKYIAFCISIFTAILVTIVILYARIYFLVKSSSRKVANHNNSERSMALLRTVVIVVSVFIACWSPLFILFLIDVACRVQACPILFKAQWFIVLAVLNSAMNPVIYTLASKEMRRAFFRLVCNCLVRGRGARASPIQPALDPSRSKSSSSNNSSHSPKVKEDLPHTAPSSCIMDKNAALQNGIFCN
# Experimental: Receptor binding assay: Membranes were prepared from CHO cells expressing S1P1 or S1P3 for use in ligand and 35S-GTPTS binding studies. Cells were suspended in 50 mM TRIS, pH 7.4, 2 mM EDTA, 250 mM Sucrose (buffer A) and 1× Complete protease inhibitor cocktail (Roche), and disrupted at 4° C. by nitrogen decompression using a cell disruption bomb (Parr Instrument). Following centrifugation at 1000 RPM for 10 min at 4° C., the supernatant was suspended in buffer A and centrifuged again at 19000 RPM for 60 min at 4° C. The pellet was then suspended in 10 mM HEPES, pH 7.4, 1 mM EDTA, 250 mM Sucrose (Buffer B), and 1× Complete EDTA-free protease inhibitor cocktail and homogenized using a potter. Membranes were flash frozen in liquid nitrogen and stored at −80° C. [33P]sphingosine 1-phosphate (3000 Ci/mmol; American Radiolabeled Chemicals, Inc.) was added to test compounds in DMSO. Membranes and WGA SPA beads (GE Healthcare) were added to give a final volume of 100 μl in 96-well plates with assay concentrations of […] [33P]sphingosine 1-phosphate (respectively for S1P1 or S1P3), 50 mM HEPES, pH 7.5, 5 mM MgCl2, 100 mM NaCl, 0.4% fatty acid-free BSA, 1-5 μg/well of proteins and 100 μg/well of WGA SPA beads. Binding was performed for 60 min at room temperature on a shaker and bound radioactivity was measured on a PerkinElmer 1450 MicroBeta counter. Specific binding was calculated by subtracting remaining radioactivity in the presence of 1000-fold excess of unlabeled S1P. Binding data were analyzed using the GraphPad Prism program.
# Measurements of ^35S-GTPγS Binding: Membranes (1 to 10 μg protein) prepared as described above, were incubated in 96-well Scintiplates (PerkinElmer) with test compounds diluted in DMSO, in 180 μl of 20 mM HEPES, pH 7.4, 10 mM MgCl2, 2 μg/well Saponin, 0.2% fatty acid free BSA (Assay buffer), 140 mM NaCl and 1.7 μM GDP. The assay was initiated with the addition of 20 μl of 1.5 nM [35S]-GTPγS (1100 Ci/mmol; GE Healthcare) in assay buffer. After 60 min incubation at 30° C. on a shaker, plates were centrifuged for 10 min at 2000 RPM. Supernatant was discarded and membrane bound radioactivity was measured on a PerkinElmer 1450 MicroBeta counter. Triplicate samples were averaged and expressed as response relative to S1P activation in absence of compound (n=2).
# S1P1 receptor, sequence (P21453 whole entry): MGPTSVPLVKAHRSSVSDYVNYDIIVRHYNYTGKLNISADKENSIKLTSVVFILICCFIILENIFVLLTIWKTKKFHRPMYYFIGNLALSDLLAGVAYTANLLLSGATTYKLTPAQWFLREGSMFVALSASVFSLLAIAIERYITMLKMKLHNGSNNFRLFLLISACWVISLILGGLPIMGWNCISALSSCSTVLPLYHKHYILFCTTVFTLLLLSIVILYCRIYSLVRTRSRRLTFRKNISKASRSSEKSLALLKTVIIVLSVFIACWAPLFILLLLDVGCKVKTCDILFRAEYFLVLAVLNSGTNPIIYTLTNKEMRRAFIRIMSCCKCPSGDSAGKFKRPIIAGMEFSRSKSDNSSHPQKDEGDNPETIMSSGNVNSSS
SMILES,EC50 (S1P1 receptor) [µM],EC50 (S1P3 receptor) [µM]
"COCc1c(-c2nc(-c3cccnc3)no2)nnn1-c1ccccc1F [Example 47, 3-{5-[1-(2-fluorophenyl)-5-(methoxymethyl)-1H-1,2,3-triazol-4-yl]-1,2,4-oxadiazol-3-yl}pyridine]",0.672,> 20
"COc1ccc(-c2noc(-c3nnn(-c4ccccc4F)c3-c3ccncc3)n2)cc1 [Example 48, 4-{1-(2-fluorophenyl)-4-[3-(4-methoxyphenyl)-1,2,4-oxadiazol-5-yl]-1H-1,2,3-triazol-5-yl}pyridine]",0.127,10.4
"COCCc1c(-c2nc(-c3ccccc3F)no2)nnn1-c1ccccc1F [Example 49, 3-(2-fluorophenyl)-5-[1-(2-fluorophenyl)-5-(2-methoxyethyl)-1H-1,2,3-triazol-4-yl]-1,2,4-oxadiazole]",0.119,13.3
"COc1cccc(-c2noc(-c3nnn(-c4ccccc4F)c3-c3ccncc3)n2)c1 [Example 51, 4-{1-(2-fluorophenyl)-4-[3-(3-methoxyphenyl)-1,2,4-oxadiazol-5-yl]-1H-1,2,3-triazol-5-yl}pyridine]",0.01,0.741
"CS(=O)(=O)c1cccc(-c2noc(-c3nnn(-c4ccccc4F)c3-c3ccncc3)n2)c1 [Example 52, 4-(1-(2-fluorophenyl)-4-{3-[3-(methylsulfonyl)phenyl]-1,2,4-oxadiazol-5-yl}-1H-1,2,3-triazol-5-yl)pyridine]",0.033,> 20
"Fc1ccccc1-c1noc(-c2nnn(-c3ccccc3F)c2C2CCOCC2)n1 [Example 59, 3-(2-fluorophenyl)-5-[1-(2-fluorophenyl)-5-(tetrahydro-2H-pyran-4-yl)-1H-1,2,3-triazol-4-yl]-1,2,4-oxadiazole]",0.154,> 20
"Fc1ccccc1-n1nnc(-c2nc(-c3cccc(Cn4cncn4)c3)no2)c1-c1ccncc1 [Example 61, 4-(1-(2-fluorophenyl)-4-{3-[3-(1H-1,2,4-triazol-1-ylmethyl)phenyl]-1,2,4-oxadiazol-5-yl}-1H-1,2,3-triazol-5-yl)pyridine]",0.182,> 20
Fc1ccc(F)c(-c2noc(-c3nnn(-c4ccccc4F)c3C3CCOCC3)n2)c1 [Example 62],0.046,> 20
"COCc1c(-c2nc(-c3ccc4[nH]ccc4c3)no2)nnn1-c1ccccc1F [Example 65, 5-{5-[1-(2-fluorophenyl)-5-(methoxymethyl)-1H-1,2,3-triazol-4-yl]-1,2,4-oxadiazol-3-yl}-1H-indole]",0.119,> 20
"COCc1c(-c2nc(-c3cccc(S(C)(=O)=O)c3)no2)nnn1-c1ccccc1F [Example 68, 5-[1-(2-fluorophenyl)-5-(methoxymethyl)-1H-1,2,3-triazol-4-yl]-3-[3-(methylsulfonyl)phenyl]-1,2,4-oxadiazole]",0.594,> 20
"Fc1ccc(F)c(-c2noc(-c3nnn(-c4ccccc4F)c3C3CC3)n2)c1 [Example 69, 5-[5-cyclopropyl-1-(2-fluorophenyl)-1H-1,2,3-triazol-4-yl]-3-(2,5-difluorophenyl)-1,2,4-oxadiazole]",0.116,> 20
"Fc1ccc(F)c(-c2noc(-c3nnn(-c4ccccc4F)c3C3CCCC3)n2)c1 [Example 77, 5-[5-cyclopentyl-1-(2-fluorophenyl)-1H-1,2,3-triazol-4-yl]-3-(2,5-difluorophenyl)-1,2,4-oxadiazole]",0.206,0.033
"NCc1ccc(-c2noc(-c3nnn(-c4ccccc4F)c3-c3ccncc3)n2)cc1 [Example 80, 1-(4-{5-[1-(2-fluorophenyl)-5-pyridin-4-yl-1H-1,2,3-triazol-4-yl]-1,2,4-oxadiazol-3-yl}phenyl)methanamine hydrochloride]",0.038,2.27
"Fc1cccc(-c2noc(-c3nnn(-c4ccccc4F)c3-c3ccncc3)n2)c1 [Example 83, 4-{1-(2-fluorophenyl)-4-[3-(3-fluorophenyl)-1,2,4-oxadiazol-5-yl]-1H-1,2,3-triazol-5-yl}pyridine]",0.017,0.242
"COCc1c(-c2nc(-c3ccc4[nH]ncc4c3)no2)nnn1-c1ccccc1F [Example 87, 5-{5-[1-(2-fluorophenyl)-5-(methoxymethyl)-1H-1,2,3-triazol-4-yl]-1,2,4-oxadiazol-3-yl}-1H-indazole]",0.098,> 20
"Fc1ccc(F)c(-c2noc(-c3nnn(-c4ccccc4F)c3CN3CCCC3)n2)c1 [Example 92, 3-(2,5-difluorophenyl)-5-[1-(2-fluorophenyl)-5-(pyrrolidin-1-ylmethyl)-1H-1,2,3-triazol-4-yl]-1,2,4-oxadiazole]",0.092,> 20
"Fc1ccc(-c2noc(-c3nnn(-c4ccccc4F)c3-c3ccncc3)n2)cc1F [Example 97, 4-[4-[3-(3,4-difluorophenyl)-1,2,4-oxadiazol-5-yl]-1-(2-fluorophenyl)-1H-1,2,3-triazol-5-yl]pyridine]",0.06,> 20
"Fc1ccccc1-n1nnc(-c2nc(-c3cccc(F)c3F)no2)c1-c1ccncc1 [Example 101, 4-[4-[3-(2,3-difluorophenyl)-1,2,4-oxadiazol-5-yl]-1-(2-fluorophenyl)-1H-1,2,3-triazol-5-yl]pyridine]",0.009,0.214
"Fc1cc(F)cc(-c2noc(-c3nnn(-c4ccccc4F)c3-c3ccncc3)n2)c1 [Example 102, 4-[4-[3-(3,5-difluorophenyl)-1,2,4-oxadiazol-5-yl]-1-(2-fluorophenyl)-1H-1,2,3-triazol-5-yl]pyridine]",0.006,0.149
"Cc1cccc(-c2noc(-c3nnn(-c4ccccc4F)c3-c3ccncc3)n2)c1 [Example 104, 4-{1-(2-fluorophenyl)-4-[3-(3-methylphenyl)-1,2,4-oxadiazol-5-yl]-1H-1,2,3-triazol-5-yl}pyridine]",0.014,0.66
"O=C(O)C1CN(Cc2ccc(-c3noc(-c4nnn(-c5ccccc5F)c4-c4ccncc4)n3)cc2)C1 [Example 113, 1-(4-{5-[1-(2-fluorophenyl)-5-pyridin-4-yl-1H-1,2,3-triazol-4-yl]-1,2,4-oxadiazol-3-yl}benzyl)azetidine-3-carboxylic acid]",0.002,1.37
"COCCNCc1ccc(-c2noc(-c3nnn(-c4ccccc4F)c3-c3ccncc3)n2)cc1 [Example 114, N-(4-{5-[1-(2-fluorophenyl)-5-pyridin-4-yl-1H-1,2,3-triazol-4-yl]-1,2,4-oxadiazol-3-yl}benzyl)-2-methoxyethanamine]",0.05,6.68
"Fc1ccccc1-n1nnc(-c2nc(-c3ccc4[nH]ncc4c3)no2)c1-c1ccncc1 [Example 116, 5-{5-[1-(2-fluorophenyl)-5-pyridin-4-yl-1H-1,2,3-triazol-4-yl]-1,2,4-oxadiazol-3-yl}-1H-indazole]",0.004,0.164
"Cc1ccccc1-c1noc(-c2nnn(-c3ccccc3F)c2-c2ccncc2)n1 [Example 121, 4-{1-(2-fluorophenyl)-4-[3-(2-methylphenyl)-1,2,4-oxadiazol-5-yl]-1H-1,2,3-triazol-5-yl}pyridine]",0.013,> 20
"O=C(O)CCNCc1ccc(-c2noc(-c3nnn(-c4ccccc4F)c3-c3ccncc3)n2)cc1 [Example 127, N-(4-{5-[1-(2-fluorophenyl)-5-pyridin-4-yl-1H-1,2,3-triazol-4-yl]-1,2,4-oxadiazol-3-yl}benzyl)-beta-alanine]",0.001,0.318
"O=C(O)C1CCN(Cc2ccc(-c3noc(-c4nnn(-c5ccccc5F)c4-c4ccncc4)n3)cc2)CC1 [Example 128, 1-(4-{5-[1-(2-fluorophenyl)-5-pyridin-4-yl-1H-1,2,3-triazol-4-yl]-1,2,4-oxadiazol-3-yl}benzyl)piperidine-4-carboxylic acid]",0.008,2.53
"CNCc1ccc(-c2noc(-c3nnn(-c4ccccc4F)c3-c3ccncc3)n2)cc1 [Example 129, 1-(4-{5-[1-(2-fluorophenyl)-5-pyridin-4-yl-1H-1,2,3-triazol-4-yl]-1,2,4-oxadiazol-3-yl}phenyl)-N-methylmethanamine]",0.01,4.56
